Measured values reported in ChEMBL document CHEMBL1201862, “PubChem BioAssay data set” (2004).
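96-well plates; 48 h exposure; 5 concentrations. Endpoints by linear interpolation between flanking doses. Not reached: highest tested concentration assigned. GI50 = concentration required for 50% inhibition of growth.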 Calls of active or inactive are those of the source. Cut-off read from the data, not from the text of the source: active = GI50 up to about 1.1 µM and inactive = higher.

Experiments:
Assay in all cases: NCI-60 cell line screen, 48 h
RXF 393 = tested on: RXF 393
MCF7 = tested on: MCF7
Hs-578T = tested on: Hs-578T
EKVX = tested on: EKVX
UACC-257 = tested on: UACC-257
SN12C = tested on: SN12C
SNB-75 = tested on: SNB-75
MDA-MB-231 = tested on: MDA-MB-231
SK-MEL-5 = tested on: SK-MEL-5
OVCAR-3 = tested on: OVCAR-3
ACHN = tested on: ACHN
IGROV-1 = tested on: IGROV-1
NCI-H226 = tested on: NCI-H226
DU-145 = tested on: DU-145
SK-MEL-2 = tested on: SK-MEL-2
BT-549 = tested on: BT-549
CCRF-CEM = tested on: CCRF-CEM
HL-60 = tested on: HL-60
LOX IMVI = tested on: LOX IMVI
HCC 2998 = tested on: HCC 2998

Measured: GI50

O=C1COC(c2ccccc2O)=NN1CCCN1CCCC1
inactive: RXF 393 > 100 µM | MCF7 > 100 µM | Hs-578T > 100 µM | EKVX > 100 µM | UACC-257 > 100 µM | SN12C > 100 µM | SNB-75 > 100 µM | MDA-MB-231 > 100 µM | SK-MEL-5 > 100 µM | OVCAR-3 > 100 µM | ACHN > 100 µM | IGROV-1 > 100 µM | NCI-H226 > 100 µM | DU-145 > 100 µM | SK-MEL-2 > 100 µM | BT-549 > 100 µM

C=C(C)CC1=C(OCC)C(OC)(OCC)C1=O (stereo not given)
inactive: MCF7 > 100 µM | Hs-578T > 100 µM | EKVX > 100 µM | CCRF-CEM > 100 µM | UACC-257 > 100 µM | SN12C > 100 µM | SNB-75 > 100 µM | MDA-MB-231 > 100 µM | SK-MEL-5 > 100 µM | OVCAR-3 > 100 µM | ACHN > 100 µM | IGROV-1 > 100 µM | NCI-H226 > 100 µM | HL-60 > 100 µM | DU-145 > 100 µM | SK-MEL-2 > 100 µM | LOX IMVI > 100 µM | BT-549 40.3 µM

S=C(NCCc1ccccn1)c1nc[nH]c1C(=S)NCCc1ccccn1
inactive: RXF 393 23 µM | MCF7 36.1 µM | Hs-578T 20.7 µM | HCC 2998 76.9 µM | EKVX 83.8 µM | CCRF-CEM 26.1 µM | UACC-257 > 100 µM | SN12C 68.5 µM | SNB-75 27.5 µM | MDA-MB-231 > 100 µM | SK-MEL-5 31.7 µM | OVCAR-3 37.9 µM | ACHN 36.3 µM | IGROV-1 34.9 µM | NCI-H226 46.8 µM | DU-145 30.8 µM | SK-MEL-2 47.8 µM | LOX IMVI 20.7 µM | BT-549 42.3 µM

O=C1CCSC(=S)N1c1ccc(Br)c(Cl)c1
inactive: RXF 393 20.1 µM | MCF7 17.9 µM | Hs-578T 39 µM | EKVX 44.8 µM | CCRF-CEM 60.5 µM | UACC-257 19.9 µM | SN12C 41.2 µM | SNB-75 25.5 µM | MDA-MB-231 29 µM | SK-MEL-5 18.4 µM | OVCAR-3 37.6 µM | ACHN 21.6 µM | IGROV-1 24.8 µM | NCI-H226 27.3 µM | HL-60 26 µM | DU-145 43.8 µM | SK-MEL-2 28.4 µM | LOX IMVI 22 µM | BT-549 21.1 µM

N#CC12COC3(CCCCC3C1(C#N)C#N)OC2=N (stereo not given)
inactive: RXF 393 13.1 µM | MCF7 11.7 µM | Hs-578T 17.1 µM | EKVX 18.5 µM | CCRF-CEM 3.53 µM | UACC-257 17.4 µM | SN12C 12.3 µM | SNB-75 14 µM | MDA-MB-231 15.2 µM | SK-MEL-5 11.4 µM | OVCAR-3 11.1 µM | ACHN 15.1 µM | IGROV-1 14.6 µM | NCI-H226 22.9 µM | HL-60 2.91 µM | DU-145 15.3 µM | SK-MEL-2 12.7 µM | LOX IMVI 12.9 µM | BT-549 15.4 µM

O=C1C(NS(=O)(=O)c2ccccc2)=C(n2ccnc2)C(=O)c2ccccc21
inactive: RXF 393 > 100 µM | MCF7 > 100 µM | Hs-578T > 100 µM | EKVX > 100 µM | CCRF-CEM > 100 µM | UACC-257 > 100 µM | SN12C > 100 µM | SNB-75 4.44 µM | MDA-MB-231 > 100 µM | SK-MEL-5 > 100 µM | OVCAR-3 > 100 µM | ACHN > 100 µM | IGROV-1 > 100 µM | NCI-H226 > 100 µM | HL-60 > 100 µM | DU-145 > 100 µM | SK-MEL-2 > 100 µM | LOX IMVI > 100 µM | BT-549 > 100 µM
